Results on one molecule are retold here after patent US8557737B2, “Methods of altering poppy characteristics” (priority 2005, dated 2013).

This assay relates to poppy crops. Briefly: Example 10: field trial, triasulfuron and metsulfuron-methyl, morphine crop. The assay is classed as in vivo, Papaver somniferum. The settings on record: COMPOUND 1 120 MG/HA + PULSE .2 % V/V at GC, RU and BE. As for the experimental part: All trials were conducted on poppy crops. Seed was treated with Thiram (5.6 g of Thiram 800/kg seed) and Apron (4 g/kg) and sown at a rate of approximately 750 g/ha. Fertilisers were applied at sowing. Most commonly, either 50:50 lime:superphosphate/triple superphosphate at 125 kg/ha, or lime:superphosphate at 250 kg/ha, were mixed with seed and drilled at a depth of 15 mm. In the same operation, NPK (nitrogen:phosphorus:potassium), at various rates, was banded 75 mm below the seed, unless otherwise stated. All crops were subjected to herbicide sprays for weed control, fungicide sprays for disease control, insecticide sprays if appropriate and were irrigated as required.
All spray applications were made with a precision sprayer, using Silvan Lurmark flat-fan, low-drift nozzles (LD110-0015). Spray equipment was calibrated to deliver 153 L water/ha.
At harvest, a 2 m×4 m quadrat was placed in each plot (3 m×6 m, unless otherwise stated) and capsules hand-picked from this area. Capsules were broken up, seed and capsule material separated and weighed. Capsule moisture readings were taken with a moisture meter. Alkaloid yield data were calculated on Pesticide Research Manager (version 5 for Windows) using the formulae below. Briefly, capsule weight was adjusted for moisture to a dry weight, 5% of seed weight was added to this (this amount of capsule material regularly occurs in seed samples after processing) to give a capsule weight per plot. Seed weight was adjusted to 95% of crude weight. Straw weights were determined by multiplying dry capsule weight by 1.3 (estimated amount of stem material in a commercial harvest) and adjusted to 11% moisture. When Lontrel was applied to crops exact capsule and seed weight data were entered. Analyses of variance and a Multiple Range Test were performed on data using Pesticide Research Manager. Significant differences (P=0.05) between treatments are denoted by different lower case letters adjacent to treatment means in the tables of results.
[…] Treatment sprays were applied to crop at ground cover, mid run-up and bud-emergence, respectively.

Consider `COC(=O)c1ccccc1S(=O)(=O)NC(=O)Nc1nc(C)nc(OC)n1` [Compound 1, metsulfuron-methyl], for which the “CAPSULE/SEED RATIO” value came to 11.957 a, the “CROP WEIGHT” value was determined as 1.86 a t/ha, the HEIGHT worked out at 84.2 b cm and the MORPHINE came out at 39.63 a kg/ha. Also, the SEED is reported as 105 c kg/ha, the STRAW turned out to be 1757 a kg/ha and the “STRAW MORPHINE” value came to 2.25 a %.
